In one test the test system is p21. In words: expression of p21, direct genetic target of OLIG2 (qPCR). The format is cell-based, human. The source says:
(§1) FIGS. 17A-17B. OLIG2 inhibitor affects expression of direct genetic targets of OLIG2. […] (FIG. 17A) Escalating OLIG2 inhibitor doses led to increased levels of p21.
(§2) mRNA was extracted from different cell lines with the AllPrep DNA/RNA Mini Kit (Qiagen, Inc.), followed by cDNA synthesis using the iScript cDNA Synthesis Kit (Bio-Rad, Inc). To investigate single-gene expression patterns, individual gene primers were purchased from Allele Biotechnology and Pharmaceuticals Inc. SYBR Green Real Time PCR master mixes were purchased from Roche Corporation. qPCR was performed with primers specific for OLIG2, p21, and OMG genes. Individual gene expression was normalized to expression of beta-Actin. Histograms show mean and standard error of the mean (SEM) from three separate experiments.
(In general: In qPCR the cycle at which signal appears reflects the starting amount.)

Another test concerns OMG. As to the kind of experiment: expression of OMG, direct genetic target of OLIG2 (qPCR). The format is cell-based, human.
Text: as §1, §2

The subject of a further test is U87 human GBM cells. In words: U87 viability (Alamar Blue). It is filed as cell-based. The settings on record: for IC50, U87 viability: U87 express low amounts of Olig2. The protocol: (§3) Culture and assay system: Ink4a/arfEGFR-VIII mouse cells and U87 human GBM cells were cultured in DMEM medium with 10% FBS. GBM4 and GBM8 patient-derived tumor neurosphere lines were cultured in stem cell medium supplemented with FGF and EGF. Primary normal human astrocytes (NHA) were cultured in astrocyte medium (Life Technologies, Grand Island N.Y.) with EGF. Cytotoxicity of the compounds was assessed by […] (MTT) reduction assay (for Ink4a/arfEGFR-VIII cells) as described earlier (Rajesh M et al., Journal of the American Chemical Society 129:11408-11420 (2007)) or by Alamar Blue assay (for all other cell types). For the MTT reduction assay, Ink4a/arfEGFR-VIII cells were grown in 96-well plates at a concentration of ˜2000 cells per well overnight and all assays were conducted in DMEM medium with 10% FBS and additives. For studies with inhibitor compounds, 10 mM stocks were serially diluted in dimethyl sulfoxide and further diluted into culture media to give appropriate concentrations while minimizing precipitation associated with serial dilutions in medium alone. Inhibitors were added to cells and left in the media for 72 hours. Cell viability for Ink4a/arfEGFR VIII cells was quantified at 540 nm after the addition of MTT (Sigma-Aldrich). Results were expressed as: […]
(§4) For GBM4, GBM8, U87, and NHA cell lines, viability was quantified by Alamar Blue Assay. In this assay, cells were treated with inhibitor compounds as described and Alamar Blue added after 72 hours. Emission values at 590 nm were measured after the addition of Alamar Blue. Dose-response curves for MTT assays and Alamar Blue Assays were plotted and IC50 values were calculated by using GraphPad Prism (GraphPad Prism Software, Inc., La Jolla, Calif.).
For orientation: The colour change of resazurin is a common sign of viable cells or microbes.

In test [1] the test system is normal human astrocytes (NHA). As to the kind of experiment: primary astrocyte viability (Alamar Blue). The format is cell-based. The settings on record: for IC50, primary astrocyte viability: astrocytes express low amounts of Olig2. The protocol: as §3, §4
Another test deals with GBM8 cells. As to the kind of experiment: GBM8 neurosphere viability (Alamar Blue). The settings on record: grown as neurospheres, inhibitor given alone. It is filed as cell-based, human. Here is the method: as §3, with “For studies with inhibitor compounds, 10 mM stocks were serially diluted in dimethyl sulfoxide and further diluted into culture media to give appropriate concentrations while minimizing precipitation associated with serial dilutions in medium alone. Inhibitors were added to cells and left in the media for 72 hours.” left out
(§5) For GBM4, GBM8, U87, and NHA cell lines, viability was quantified by Alamar Blue Assay. […] Emission values at 590 nm were measured after the addition of Alamar Blue. Dose-response curves for MTT assays and Alamar Blue Assays were plotted and IC50 values were calculated by using GraphPad Prism (GraphPad Prism Software, Inc., La Jolla, Calif.).

For a further test, the system named is GBM4 cells. In words: GBM4 neurosphere viability (Alamar Blue). The settings on record: grown as neurospheres, inhibitor given alone. It is filed as cell-based, human. Here is the method:
as §3, with “For studies with inhibitor compounds, 10 mM stocks were serially diluted in dimethyl sulfoxide and further diluted into culture media to give appropriate concentrations while minimizing precipitation associated with serial dilutions in medium alone. Inhibitors were added to cells and left in the media for 72 hours.” left out
as §5

For another test, the system named is GBM4 neurospheres. In words: GBM4 neurosphere formation, light microscopy. The settings on record: 0.1 uM and 5 uM, 72 h. The format is cell-based, human.
Setting [2] is: GBM4 cells, escalating doses (18 h in FIG. 17).

“Also recorded” adds a separate entry of the source.

Take `CCN1CCCC(Nc2cc(C)nc(NC(=N)Nc3ccc(Cl)c(Cl)c3)n2)C1` (stereo not shown) [SKOG-101]: the P21 levels result in the test with p21 (FIG. 6, relative to vehicle control) is “rose markedly”. The “levels of OMG” value in the test with OMG (FIG. 7, relative to vehicle control) was “went down markedly”. Besides, the “IC50, U87 viability” value in the test with U87 human GBM cells is listed as “high”. Also, in test [1], the “IC50, primary astrocyte viability” value is listed as “high”.

With `CCN1CCCC(Nc2cc(C)nc(NC(=N)Nc3ccc(Cl)c(Cl)c3)n2)C1` (stereo not shown) [SKOG-102], the “suppression of GBM8 cells” value in the test on GBM8 cells was “markedly suppressed; also recorded: active”. In addition, the “suppression of GBM4 cells” value with GBM4 cells was “markedly suppressed; also recorded: active”. Besides, the “expression of p21” value in the test on p21 (setting [2]) is “increased in a dose-dependent manner”. Moreover, the “expression of OMG” value in the test with OMG (setting [2]) is recorded as “suppressed; also recorded: decline”. In addition, in the test on U87 human GBM cells, the “IC50, U87 viability” value is “high”. For the same molecule, the “suppression of U87 cells” value with U87 human GBM cells (compared with GBM4/8 cells) is “a higher dose was needed”. In addition, the “IC50 of NHA relative to GBM4 cells” value in test [1] (NHA vs GBM4) is on record as about 20 fold. Moreover, the “IC50, primary astrocyte viability” value in test [1] is “high”. The “inhibition of neurosphere formation in GBM4 cells (active / inactive compound)” value in the test on GBM4 neurospheres is reported as “active”.

Values taken from US20170182049A1, “NOVEL THERAPEUTICS FOR BRAIN CANCER” (The Regents of the University of California, priority 2012, published 2017).
